# Target: GCase enzyme (Cerezyme, recombinant human GCase) (Homo sapiens, UniProt P04062, R534H)
# Sequence (P04062 40-536 R534H limits assumed): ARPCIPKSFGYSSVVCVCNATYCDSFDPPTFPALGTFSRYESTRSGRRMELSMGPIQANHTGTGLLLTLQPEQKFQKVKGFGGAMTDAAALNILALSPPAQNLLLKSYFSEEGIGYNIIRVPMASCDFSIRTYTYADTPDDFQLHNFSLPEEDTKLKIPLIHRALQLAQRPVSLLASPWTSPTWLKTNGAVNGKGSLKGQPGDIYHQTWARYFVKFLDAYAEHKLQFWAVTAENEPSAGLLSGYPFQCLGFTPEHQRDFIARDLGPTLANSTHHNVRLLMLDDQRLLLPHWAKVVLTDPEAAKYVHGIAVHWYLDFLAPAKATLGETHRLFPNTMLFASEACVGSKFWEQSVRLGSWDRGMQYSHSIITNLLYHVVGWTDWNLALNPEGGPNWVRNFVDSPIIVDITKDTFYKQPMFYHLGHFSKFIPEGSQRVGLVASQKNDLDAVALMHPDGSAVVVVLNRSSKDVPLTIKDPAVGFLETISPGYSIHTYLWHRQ
SMILES,IC50,Ki
"CCC[C@@H]1[C@@H](O)[C@H](O)CNC12CC2 [Example 13, (6R,7R,8S)-8-propyl-4-azaspiro[2.5]octane-6,7-diol]",0.015 µM,
"O=C(O)[C@@H]1[C@@H](O)[C@H](O)CNC12CC2 [Example 9, (6R,7R,8S)-6,7-dihydroxy-4-azaspiro[2.5]octane-8-carboxylic acid]",0.507 µM,
"OCC#C[C@@H]1[C@@H](O)[C@H](O)CNC12CC2 [Example 24, (6R,7R,8S)-8-(3-hydroxyprop-1-yn-1-yl)-4-azaspiro[2.5]octane-6,7-diol]",0.017 µM,
"O[C@H]1[C@H](O)CNC2(CC2)[C@@H]1/C=C\F [Example 17, (6R,7R,8S)-8-((Z)-2-fluorovinyl)-4-azaspiro[2.5]octane-6,7-diol]",0.036 µM,
"O[C@H]1[C@H](O)CNC2(CC2)[C@@H]1CF [Example 3, (6R,7R,8S)-8-(fluoromethyl)-4-azaspiro[2.5]octane-6,7-diol]",0.0062 µM,0.0021 µM
"O[C@H]1[C@H](O)CNC2(CC2)[C@@H]1CCF [Example 14, (6R,7R,8S)-8-(2-fluoroethyl)-4-azaspiro[2.5]octane-6,7-diol]",0.027 µM,
"CO[C@@H]1[C@@H](O)[C@H](O)CNC12CC2 [Example 7, (6R,7S,8S)-8-methoxy-4-azaspiro[2.5]octane-6,7-diol]",0.032 µM,
"O[C@H]1[C@H](O)CNC2(CC2)[C@@H]1C#CC(F)F [Example 26, (6R,7R,8S)-8-(3,3-difluoroprop-1-yn-1-yl)-4-azaspiro[2.5]octane-6,7-diol]",0.022 µM,0.017 µM
"CC1(C)NC[C@@H](O)[C@H](O)[C@H]1CO [(3R,4R,5R)-5-(hydroxymethyl)-6,6-dimethylpiperidine-3,4-diol, reference compound]",3.44 µM,
"N#C[C@@H]1[C@@H](O)[C@H](O)CNC12CC2 [Example 8, (6R,7R,8R)-6,7-dihydroxy-4-azaspiro[2.5]octane-8-carbonitrile]",0.075 µM,
"CNC(=O)[C@@H]1[C@@H](O)[C@H](O)CNC12CC2 [Example 10, (6R,7R,8S)-6,7-dihydroxy-N-methyl-4-azaspiro[2.5]octane-8-carboxamide]",0.264 µM,
"C#C[C@@H]1[C@@H](O)[C@H](O)CNC12CC2 [Example 20, (6R,7R,8S)-8-ethynyl-4-azaspiro[2.5]octane-6,7-diol]",0.013 µM,0.0079 µM
"O[C@H]1[C@H](O)CNC2(CC2)[C@@H]1C=C(F)F [Example 19, (6R,7R,8S)-8-(2,2-difluorovinyl)-4-azaspiro[2.5]octane-6,7-diol]",0.075 µM,
"O[C@H]1[C@H](O)CNC2(CC2)[C@@H]1/C=C/F [Example 18, (6R,7R,8S)-8-((E)-2-fluorovinyl)-4-azaspiro[2.5]octane-6,7-diol]",0.02 µM,
"O[C@H]1[C@H](O)CNC2(CC2)[C@@H]1C#CCF [Example 25, (6R,7R,8S)-8-(3-fluoroprop-1-yn-1-yl)-4-azaspiro[2.5]octane-6,7-diol]",0.016 µM,0.015 µM
"O=C(NC1CC1)[C@@H]1[C@@H](O)[C@H](O)CNC12CC2 [Example 11, (6R,7R,8S)-N-cyclopropyl-6,7-dihydroxy-4-azaspiro[2.5]octane-8-carboxamide]",0.462 µM,

# Continued, values first:
IC50,Ki,SMILES
0.013 µM,0.007 µM,"OC[C@@H]1[C@@H](O)[C@H](O)CNC12CC2 [Example 2, (6R,7R,8R)-8-(hydroxymethyl)-4-azaspiro[2.5]octane-6,7-diol]"
0.0024 µM,,"CCC#C[C@@H]1[C@@H](O)[C@H](O)CNC12CC2 [Example 22, (6R,7R,8S)-8-(but-1-yn-1-yl)-4-azaspiro[2.5]octane-6,7-diol]"
0.0025 µM,,"O[C@H]1[C@H](O)CNC2(CC2)[C@@H]1C#CCCF [Example 27, (6R,7R,8S)-8-(4-fluorobut-1-yn-1-yl)-4-azaspiro[2.5]octane-6,7-diol]"
0.0067 µM,,"CCCC#C[C@@H]1[C@@H](O)[C@H](O)CNC12CC2 [Example 23, (6R,7R,8S)-8-(pent-1-yn-1-yl)-4-azaspiro[2.5]octane-6,7-diol]"
0.0097 µM,0.0067 µM,"CC#C[C@@H]1[C@@H](O)[C@H](O)CNC12CC2 [Example 21, (6R,7R,8S)-8-(prop-1-yn-1-yl)-4-azaspiro[2.5]octane-6,7-diol]"
0.011 µM,,"O[C@H]1[C@H](O)CNC2(CC2)[C@@H]1C#CCC(F)F [Example 28, (6R,7R,8S)-8-(4,4-difluorobut-1-yn-1-yl)-4-azaspiro[2.5]octane-6,7-diol]"
0.0065 µM,0.008 µM,"O[C@H]1[C@H](O)CNC2(CC2)[C@@H]1C(F)F [Example 4, (6R,7R,8S)-8-(difluoromethyl)-4-azaspiro[2.5]octane-6,7-diol]"
0.0074 µM,,"O[C@H]1[C@H](O)CNC2(CC2)[C@@H]1CCl [Example 5, (6R,7R,8S)-8-(chloromethyl)-4-azaspiro[2.5]octane-6,7-diol]"
0.0075 µM,,"COC[C@@H]1[C@@H](O)[C@H](O)CNC12CC2 [Example 6, (6R,7R,8R)-8-(methoxymethyl)-4-azaspiro[2.5]octane-6,7-diol]"
0.0063 µM,,"CC[C@@H]1[C@@H](O)[C@H](O)CNC12CC2 [Example 12, (6R,7R,8S)-8-ethyl-4-azaspiro[2.5]octane-6,7-diol]"
0.0068 µM,0.0076 µM,"C=C[C@@H]1[C@@H](O)[C@H](O)CNC12CC2 [Example 16, (6R,7R,8S)-8-vinyl-4-azaspiro[2.5]octane-6,7-diol]"
0.0037 µM,0.0026 µM,"C[C@@H]1[C@@H](O)[C@H](O)CNC12CC2 [Example 1, (6R,7R,8S)-8-methyl-4-azaspiro[2.5]octane-6,7-diol]"

# Source: patent US9796680B2, “Glucocerebrosidase modulators and uses thereof” (Alectos Therapeutics Inc., priority 2013, dated 2017)
